Laboratory results taken from patent publication US10150760B2, “Compounds for use in preparing heterocyclic triazole agonists of the APJ receptor” (AMGEN INC., priority 2016, dated 2018).
pEC50: −log10 of the molar value.

Biological target: human APJ receptor (Homo sapiens (Human), UniProt P35414)
Assay: [35S]GTPγS binding assay on membranes from CHO cells stably expressing human APJ receptor
Assay type: biochemical
Conditions: read-out: Activity hAPJ SPA EC50 IP
How it was run: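 Agonist-driven [35S]GTPγS (0.2 nM) binding was measured over 90 min at room temperature on human APJ-expressing CHO membranes with bead capture, in buffer containing 3 μM GDP, 200 mM NaCl and 5 mM MgCl2 (pH 7.5). Excess unlabelled GTPγS (100 μM) gave nonspecific signal; EC50 from non-linear fits.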

Sequence of human APJ receptor (P35414 whole entry): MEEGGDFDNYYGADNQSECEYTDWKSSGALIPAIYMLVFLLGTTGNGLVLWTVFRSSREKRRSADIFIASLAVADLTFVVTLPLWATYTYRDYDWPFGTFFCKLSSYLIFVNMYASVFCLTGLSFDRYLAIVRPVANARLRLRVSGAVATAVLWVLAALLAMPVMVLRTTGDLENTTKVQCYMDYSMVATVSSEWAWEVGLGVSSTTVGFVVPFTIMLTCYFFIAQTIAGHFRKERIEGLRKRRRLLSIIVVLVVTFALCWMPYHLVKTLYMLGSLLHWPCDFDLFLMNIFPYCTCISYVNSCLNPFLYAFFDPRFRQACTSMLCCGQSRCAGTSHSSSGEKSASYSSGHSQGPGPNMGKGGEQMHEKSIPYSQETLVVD

How did the pEC50 turn out when COc1cccc(OC)c1-n1c(NS(=O)(=O)[C@@H](C)[C@H](C)c2ncc(C)cn2)nnc1[C@@H]1CCCN(C)C1 (single isomer, unassigned) [Example 269.0, (2S,3R)-N-(4-(2,6-dimethoxyphenyl)-5-((R)-1-methylpiperidin-3-yl)-4H-1,2,4-triazol-3-yl)-3-(5-methylpyrimidin-2-yl)butane-2-sulfonamide or (2S,3R)-N-(4-(2,6-dimethoxyphenyl)-5-((S)-1-methylpiperidin-3-yl)-4H-1,2,4-triazol-3-yl)-3-(5-methylpyrimidin-2-yl)butane-2-sulfonamide] was run?
Its pEC50 is 6.38.

With COc1cccc(OC)c1-n1c(NS(=O)(=O)[C@@H](C)[C@H](C)c2ncc(C)cn2)nnc1[C@@H]1CCCN(C)C1 (single isomer, unassigned) [Example 270.0, (2S,3R)-N-(4-(2,6-dimethoxyphenyl)-5-((R)-1-methylpiperidin-3-yl)-4H-1,2,4-triazol-3-yl)-3-(5-methylpyrimidin-2-yl)butane-2-sulfonamide or (2S,3R)-N-(4-(2,6-dimethoxyphenyl)-5-((S)-1-methylpiperidin-3-yl)-4H-1,2,4-triazol-3-yl)-3-(5-methylpyrimidin-2-yl)butane-2-sulfonamide] as the molecule, how does the pEC50 read?
Its pEC50 is 6.39.

How did the pEC50 turn out when CO[C@H](c1ncc(Cl)cn1)[C@H](C)S(=O)(=O)Nc1nnc([C@@H]2COCCO2)n1C1(C)CC1 (single isomer, unassigned) [Example 271.0, (1R,2S)-N-(5-((R)-1,4-dioxan-2-yl)-4-(1-methylcyclopropyl)-4H-1,2,4-triazol-3-yl)-1-(5-chloropyrimidin-2-yl)-1-methoxypropane-2-sulfonamide or (1R,2S)-N-(5-((S)-1,4-dioxan-2-yl)-4-(1-methylcyclopropyl)-4H-1,2,4-triazol-3-yl)-1-(5-chloropyrimidin-2-yl)-1-methoxypropane-2-sulfonamide] was run?
Its pEC50 is 6.85.

With CO[C@H](c1ncc(Cl)cn1)[C@H](C)S(=O)(=O)Nc1nnc([C@@H]2COCCO2)n1C1(C)CC1 (single isomer, unassigned) [Example 272.0, (1R,2S)-N-(5-((R)-1,4-dioxan-2-yl)-4-(1-methylcyclopropyl)-4H-1,2,4-triazol-3-yl)-1-(5-chloropyrimidin-2-yl)-1-methoxypropane-2-sulfonamide or (1R,2S)-N-(5-((S)-1,4-dioxan-2-yl)-4-(1-methylcyclopropyl)-4H-1,2,4-triazol-3-yl)-1-(5-chloropyrimidin-2-yl)-1-methoxypropane-2-sulfonamide] as the molecule, how does the pEC50 read?
Its pEC50 is 6.00.

How did the pEC50 turn out when COc1cccc(OC)c1-n1c(NS(=O)(=O)[C@@H](C)[C@H](C)c2ncc(F)cn2)nnc1[C@H]1CCOC1 (single isomer, unassigned) [Example 273.0, (2S,3R)-N-(4-(2,6-dimethoxyphenyl)-5-((R)-tetrahydrofuran-3-yl)-4H-1,2,4-triazol-3-yl)-3-(5-fluoropyrimidin-2-yl)butane-2-sulfonamide or (2S,3R)-N-(4-(2,6-dimethoxyphenyl)-5-((S)-tetrahydrofuran-3-yl)-4H-1,2,4-triazol-3-yl)-3-(5-fluoropyrimidin-2-yl)butane-2-sulfonamide] was run?
Its pEC50 is 7.54.

With COc1cccc(OC)c1-n1c(NS(=O)(=O)[C@@H](C)[C@H](C)c2ncc(F)cn2)nnc1[C@H]1CCOC1 (single isomer, unassigned) [Example 274.0, (2S,3R)-N-(4-(2,6-dimethoxyphenyl)-5-((R)-tetrahydrofuran-3-yl)-4H-1,2,4-triazol-3-yl)-3-(5-fluoropyrimidin-2-yl)butane-2-sulfonamide or (2S,3R)-N-(4-(2,6-dimethoxyphenyl)-5-((S)-tetrahydrofuran-3-yl)-4H-1,2,4-triazol-3-yl)-3-(5-fluoropyrimidin-2-yl)butane-2-sulfonamide] as the molecule, how does the pEC50 read?
The pEC50 was 7.11.

How did the pEC50 turn out when COc1cccc(OC)c1-n1c(NS(=O)(=O)[C@@H](C)[C@H](C)c2ncc(F)cn2)nnc1[C@@H]1COCCO1 (single isomer, unassigned) [Example 276.0, (2S,3R)-N-(4-(2,6-dimethoxyphenyl)-5-((R)-1,4-dioxan-2-yl)-4H-1,2,4-triazol-3-yl)-3-(5-fluoropyrimidin-2-yl)butane-2-sulfonamide or (2S,3R)-N-(4-(2,6-dimethoxyphenyl)-5-((S)-1,4-dioxan-2-yl)-4H-1,2,4-triazol-3-yl)-3-(5-fluoropyrimidin-2-yl)butane-2-sulfonamide] was run?
The pEC50 was 7.48.

COc1ncnc(OC)c1-n1c(NS(=O)(=O)[C@@H](C)[C@H](C)c2ncc(F)cn2)nnc1[C@@H]1COCCO1 (single isomer, unassigned) [Example 277.0, (2S,3R)-N-(4-(4,6-dimethoxypyrimidin-5-yl)-5-((R)-1,4-dioxan-2-yl)-4H-1,2,4-triazol-3-yl)-3-(5-fluoropyrimidin-2-yl)butane-2-sulfonamide or (2S,3R)-N-(4-(4,6-dimethoxypyrimidin-5-yl)-5-((S)-1,4-dioxan-2-yl)-4H-1,2,4-triazol-3-yl)-3-(5-fluoropyrimidin-2-yl)butane-2-sulfonamide] was tested. Which pEC50 did it give?
Its pEC50 is 7.64.

COc1ncnc(OC)c1-n1c(NS(=O)(=O)[C@@H](C)[C@H](C)c2ncc(F)cn2)nnc1[C@@H]1COCCO1 (single isomer, unassigned) [Example 278.0, (2S,3R)-N-(4-(4,6-dimethoxypyrimidin-5-yl)-5-((R)-1,4-dioxan-2-yl)-4H-1,2,4-triazol-3-yl)-3-(5-fluoropyrimidin-2-yl)butane-2-sulfonamide or (2S,3R)-N-(4-(4,6-dimethoxypyrimidin-5-yl)-5-((S)-1,4-dioxan-2-yl)-4H-1,2,4-triazol-3-yl)-3-(5-fluoropyrimidin-2-yl)butane-2-sulfonamide] was tested. Which pEC50 did it give?
Its pEC50 is 6.29.

With COc1ncnc(OC)c1-n1c(NS(=O)(=O)[C@@H](C)[C@@H](OC(C)C)c2ncc(Cl)cn2)nnc1[C@H]1CCC(C)(C)O1 (single isomer, unassigned) [Example 279.0, (1S,2S)-1-(5-chloropyrimidin-2-yl)-N-(4-(4,6-dimethoxypyrimidin-5-yl)-5-((R)-5,5-dimethyltetrahydrofuran-2-yl)-4H-1,2,4-triazol-3-yl)-1-isopropoxypropane-2-sulfonamide or (1S,2S)-1-(5-chloropyrimidin-2-yl)-N-(4-(4,6-dimethoxypyrimidin-5-yl)-5-((S)-5,5-dimethyltetrahydrofuran-2-yl)-4H-1,2,4-triazol-3-yl)-1-isopropoxypropane-2-sulfonamide] as the molecule, how does the pEC50 read?
The pEC50 was 9.17.

How did the pEC50 turn out when COc1ncnc(OC)c1-n1c(NS(=O)(=O)[C@@H](C)[C@@H](OC(C)C)c2ncc(Cl)cn2)nnc1[C@H]1CCC(C)(C)O1 (single isomer, unassigned) [Example 280.0, (1S,2S)-1-(5-chloropyrimidin-2-yl)-N-(4-(4,6-dimethoxypyrimidin-5-yl)-5-((R)-5,5-dimethyltetrahydrofuran-2-yl)-4H-1,2,4-triazol-3-yl)-1-isopropoxypropane-2-sulfonamide or (1S,2S)-1-(5-chloropyrimidin-2-yl)-N-(4-(4,6-dimethoxypyrimidin-5-yl)-5-((S)-5,5-dimethyltetrahydrofuran-2-yl)-4H-1,2,4-triazol-3-yl)-1-isopropoxypropane-2-sulfonamide] was run?
The pEC50 was 8.12.

COc1cccc(OC)c1-n1c(NS(=O)(=O)[C@@H](C)[C@@H](OC(C)C)c2ncc(Cl)cn2)nnc1[C@H]1CCOC1 (single isomer, unassigned) [Example 281.0, (1S,2S)-1-(5-chloropyrimidin-2-yl)-N-(4-(2,6-dimethoxyphenyl)-5-((R)-tetrahydrofuran-3-yl)-4H-1,2,4-triazol-3-yl)-1-isopropoxypropane-2-sulfonamide or (1S,25)-1-(5-chloropyrimidin-2-yl)-N-(4-(2,6-dimethoxyphenyl)-5-((S)-tetrahydrofuran-3-yl)-4H-1,2,4-triazol-3-yl)-1-isopropoxypropane-2-sulfonamide] was tested. Which pEC50 did it give?
Its pEC50 is 9.96.

How did the pEC50 turn out when COc1cccc(OC)c1-n1c(NS(=O)(=O)[C@@H](C)[C@@H](OC(C)C)c2ncc(Cl)cn2)nnc1[C@H]1CCOC1 (single isomer, unassigned) [Example 282.0, (1S,2S)-1-(5-chloropyrimidin-2-yl)-N-(4-(2,6-dimethoxyphenyl)-5-((R)-tetrahydrofuran-3-yl)-4H-1,2,4-triazol-3-yl)-1-isopropoxypropane-2-sulfonamide or (1S,25)-1-(5-chloropyrimidin-2-yl)-N-(4-(2,6-dimethoxyphenyl)-5-((S)-tetrahydrofuran-3-yl)-4H-1,2,4-triazol-3-yl)-1-isopropoxypropane-2-sulfonamide] was run?
Its pEC50 is 8.80.

COc1cccc(OC)c1-n1c(NS(=O)(=O)[C@@H](C)[C@@H](OC(C)C)c2ncc(Cl)cn2)nnc1[C@@H]1COCCO1 (single isomer, unassigned) [Example 283.0, (1S,2S)-1-(5-chloropyrimidin-2-yl)-N-(4-(2,6-dimethoxyphenyl)-5-((R)-1,4-dioxan-2-yl)-4H-1,2,4-triazol-3-yl)-1-isopropoxypropane-2-sulfonamide or (1S,2S)-1-(5-chloropyrimidin-2-yl)-N-(4-(2,6-dimethoxyphenyl)-5-((S)-1,4-dioxan-2-yl)-4H-1,2,4-triazol-3-yl)-1-isopropoxypropane-2-sulfonamide] was tested. Which pEC50 did it give?
Its pEC50 is 9.20.

With COCC1(n2c(NS(=O)(=O)[C@@H](C)[C@H](OC)c3ncc(Cl)cn3)nnc2[C@H]2CC[C@@H](C)O2)CC1 (single isomer, unassigned) [Example 285.0, (1R,2S)-1-(5-chloropyrimidin-2-yl)-1-methoxy-N-(4-(1-(methoxymethyl)cyclopropyl)-5-((2S,5S)-5-methyltetrahydrofuran-2-yl)-4H-1,2,4-triazol-3-yl)propane-2-sulfonamide or (1R,2S)-1-(5-chloropyrimidin-2-yl)-1-methoxy-N-(4-(1-(methoxymethyl)cyclopropyl)-5-((2R,5R)-5-methyltetrahydrofuran-2-yl)-4H-1,2,4-triazol-3-yl)propane-2-sulfonamide] as the molecule, how does the pEC50 read?
The pEC50 was 7.19.
